The record followed here is patent US9783527B2, “Indazole ureas and method of use” (AbbVie Inc., priority 2014, dated 2017).

The structures appear in SMILES notation.

Chain of human Nav1.7 (Q15858 whole entry): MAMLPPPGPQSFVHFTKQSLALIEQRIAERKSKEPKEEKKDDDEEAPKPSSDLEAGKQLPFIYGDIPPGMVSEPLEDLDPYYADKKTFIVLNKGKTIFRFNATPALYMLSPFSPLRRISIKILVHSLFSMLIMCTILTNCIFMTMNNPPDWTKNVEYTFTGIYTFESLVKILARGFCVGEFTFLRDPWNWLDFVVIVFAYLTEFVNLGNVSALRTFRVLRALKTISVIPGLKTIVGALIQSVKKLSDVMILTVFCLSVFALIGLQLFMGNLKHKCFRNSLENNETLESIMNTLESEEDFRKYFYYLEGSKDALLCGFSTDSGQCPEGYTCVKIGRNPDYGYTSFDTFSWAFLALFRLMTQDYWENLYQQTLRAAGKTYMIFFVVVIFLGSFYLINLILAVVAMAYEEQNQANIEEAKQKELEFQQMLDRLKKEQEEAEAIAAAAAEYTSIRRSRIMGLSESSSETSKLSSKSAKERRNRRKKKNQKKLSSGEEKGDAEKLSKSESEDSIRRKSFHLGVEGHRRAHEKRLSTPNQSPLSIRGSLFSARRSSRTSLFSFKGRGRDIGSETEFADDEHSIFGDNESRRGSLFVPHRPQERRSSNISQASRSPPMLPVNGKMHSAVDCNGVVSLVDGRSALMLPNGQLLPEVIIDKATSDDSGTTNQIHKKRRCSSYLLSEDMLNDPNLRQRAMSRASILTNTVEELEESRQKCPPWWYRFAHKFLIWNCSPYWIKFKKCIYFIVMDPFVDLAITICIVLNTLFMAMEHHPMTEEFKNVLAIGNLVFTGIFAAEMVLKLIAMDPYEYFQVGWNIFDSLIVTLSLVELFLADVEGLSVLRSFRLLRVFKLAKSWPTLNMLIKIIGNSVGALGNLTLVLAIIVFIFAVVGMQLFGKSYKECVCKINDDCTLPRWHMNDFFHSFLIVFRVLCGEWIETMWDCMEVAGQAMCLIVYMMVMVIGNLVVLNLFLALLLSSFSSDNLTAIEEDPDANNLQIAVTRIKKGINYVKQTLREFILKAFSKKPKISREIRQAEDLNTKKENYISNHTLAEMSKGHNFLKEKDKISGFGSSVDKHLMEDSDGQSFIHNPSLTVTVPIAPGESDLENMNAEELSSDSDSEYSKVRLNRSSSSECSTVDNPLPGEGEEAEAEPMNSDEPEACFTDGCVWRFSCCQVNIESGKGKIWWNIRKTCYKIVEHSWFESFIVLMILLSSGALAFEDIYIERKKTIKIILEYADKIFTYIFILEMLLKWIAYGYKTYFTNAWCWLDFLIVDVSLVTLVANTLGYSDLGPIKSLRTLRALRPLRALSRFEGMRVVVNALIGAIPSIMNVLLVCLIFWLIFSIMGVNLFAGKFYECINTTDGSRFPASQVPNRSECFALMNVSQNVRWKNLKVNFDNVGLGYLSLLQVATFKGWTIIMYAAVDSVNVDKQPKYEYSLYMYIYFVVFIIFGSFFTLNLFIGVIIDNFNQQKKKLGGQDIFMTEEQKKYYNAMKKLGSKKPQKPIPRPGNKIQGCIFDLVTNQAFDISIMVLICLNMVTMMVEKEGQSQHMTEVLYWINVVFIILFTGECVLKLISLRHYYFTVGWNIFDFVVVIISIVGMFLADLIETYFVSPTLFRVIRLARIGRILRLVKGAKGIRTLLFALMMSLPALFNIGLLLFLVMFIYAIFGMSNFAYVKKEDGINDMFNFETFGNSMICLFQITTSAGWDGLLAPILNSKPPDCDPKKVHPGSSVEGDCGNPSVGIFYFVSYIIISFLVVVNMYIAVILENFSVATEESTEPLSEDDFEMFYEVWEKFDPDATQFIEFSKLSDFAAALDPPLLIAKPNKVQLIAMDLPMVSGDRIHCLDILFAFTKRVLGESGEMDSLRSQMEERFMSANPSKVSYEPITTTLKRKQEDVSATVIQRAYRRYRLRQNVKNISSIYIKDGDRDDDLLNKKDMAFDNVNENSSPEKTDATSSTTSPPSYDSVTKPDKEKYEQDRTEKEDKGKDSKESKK

The test addresses human Nav1.7 (Homo sapiens (Human), UniProt Q15858). Description: FRET-based membrane potential assay, recombinant human sodium channel Nav1.7. The class given is cell-based. As to conditions: HEK293 cells stably expressing recombinant human Nav1.7; depolarization with veratridine (EC80) + scorpion venom. On the procedure: FRET-Based Membrane Potential Assays.
Recombinant, Human Sodium Channel, Nav1.7.
Two days prior to the experiment, frozen HEK293 cells stably expressing recombinant human Nav1.7 were quickly thawed and plated at 25,000 cells/well in growth medium [DMEM (Invitrogen #11965) with 10% HI FBS (Invitrogen #10082), 2 mM glutamine, 100 units/mL penicillin, 0.1 mg/mL streptomycin (PSG, Sigma #G1146), and 500 μg/mL Geneticin (Invitrogen #10131)] in black-walled, clear-bottom 384-well poly-D-lysine-coated assay plates (Greiner Bio-One, Frickenhausen, Germany) and incubated in a humidified 5% CO2 incubator at 37° C. On the day of the assay, medium was removed by aspiration, and cells were washed with assay buffer [HBSS (Invitrogen, Carlsbad, Calif.) containing 20 mM HEPES (Invitrogen, Carlsbad, Calif.)]. After washing, 30 μL assay buffer containing the fluorescent voltage-sensor probe CC2-DMPE (Invitrogen, Carlsbad, Calif.) at 20 μM and 0.01% pluronic F-127 (Invitrogen, Carlsbad, Calif.) was added to the cells. Cells were incubated for 40 minutes at room temperature in the dark. Following the incubation, the cells were washed and 30 μL assay buffer containing 2.5 μM DiSBAC2(3) substrate (Invitrogen, Carlsbad, Calif.) and 0.5 mM VABSC-1 (Invitrogen, Carlsbad, Calif.) was added to the cells. The cells were incubated for 90 minutes at room temperature in the dark. Fluorescence readings were made using a FLIPR®^TETRA (Molecular Devices, Sunnyvale Calif.) equipped with voltage-sensor probe optics. At the start of each experiment the optimal (EC80) concentration of depolarizing agent (veratridine) was determined by testing a dilution curve of assay buffer containing veratridine (Sigma-Aldrich, St. Louis, Mo.) and 1 mg/mL scorpion venom (SVqq, from Leiurus quinquestriatus; Sigma-Aldrich, St. Louis, Mo.). […] Test compounds in the daughter plate were diluted to (˜3×) solutions in assay buffer immediately before assaying. Using the FLIPR®^TETRA, 20 μL of the (3×) compound solutions were first added to the cells, then 20 μL of depolarizing solution (3×EC80 veratridine+SVqq) were added 3 minutes later to activate the channel. Changes in fluorescence were measured at wavelengths of 440-480 nm and 565-625 nm over the course of the experimental run. Membrane depolarization was expressed as a ratio of the maximum F440-480 nm/F565-625 nm reading above average baseline F440-480 nm/F565-625 nm reading. IC50 values were calculated from curve fits of the ratio data using a four-parameter logistic Hill equation (Accelrys Assay Explorer 3.3 Client, Accelrys, San Diego, Calif.) with percent inhibition plotted against compound concentration.
In general, IC50 refers to the concentration that gives 50% inhibition. As to `CC(C)CNC(=O)CN1CCN(c2cccc3c2cnn3-c2ccccc2F)C1=O` [Example 92, 2-{3-[1-(2-fluorophenyl)-1H-indazol-4-yl]-2-oxoimidazolidin-1-yl}-N-isobutylacetamide], the IC50 turned out to be 1860 nM.

As for `O=C(CN1CCN(c2cccc3c2cnn3-c2ccccc2F)C1=O)N1CCC1` [Example 94, 1-[2-(azetidin-1-yl)-2-oxoethyl]-3-[1-(2-fluorophenyl)-1H-indazol-4-yl]imidazolidin-2-one], the IC50 amounted to 11900 nM.

Regarding `CC(C)NC(=O)CN1CCN(c2cccc3c2cnn3-c2ccccc2F)C1=O` [Example 95, 2-{3-[1-(2-fluorophenyl)-1H-indazol-4-yl]-2-oxoimidazolidin-1-yl}-N-isopropylacetamide], the concentration for half-maximal inhibition (IC50) was 2680 nM.

On to `CC(C)OCC(=O)N1CCN(c2cccc3c2cnn3-c2ccccc2F)C1=O` [Example 96, 1-[1-(2-fluorophenyl)-1H-indazol-4-yl]-3-(isopropoxyacetyl)imidazolidin-2-one], for which the IC50 was 1640 nM.

Take `O=C1N(Cc2cc(C(F)(F)F)ccn2)CCN1c1cccc2c1cnn2-c1ccccc1F` [Example 97, 1-[1-(2-fluorophenyl)-1H-indazol-4-yl]-3-{[4-(trifluoromethyl)pyridin-2-yl]methyl}imidazolidin-2-one]: the IC50 is 2390 nM.

For `CCOCC1(F)CCN(C(=O)CN2CCN(c3cccc4c3cnn4-c3ccccc3F)C2=O)C1` (stereo not drawn) [Example 98, 1-{2-[3-(ethoxymethyl)-3-fluoropyrrolidin-1-yl]-2-oxoethyl}-3-[1-(2-fluorophenyl)-1H-indazol-4-yl]imidazolidin-2-one], the IC50 came out at 1440 nM.

For `O=C(CN1CCN(c2cccc3c2cnn3-c2ccccc2F)C1=O)N1CCN2CCC[C@H]2C1` [Example 99, 1-[1-(2-fluorophenyl)-1H-indazol-4-yl]-3-{2-[(8aS)-hexahydropyrrolo[1,2-c]pyrazin-2(1H)-yl]-2-oxoethyl}imidazolidin-2-one], the IC50 came out at 482 nM.

Take `CC1COCC(C)N1C(=O)CN1CCN(c2cccc3c2cnn3-c2ccccc2F)C1=O` (stereo not drawn) [Example 101, 1-[2-(3,5-dimethylmorpholin-4-yl)-2-oxoethyl]-3-[1-(2-fluorophenyl)-1H-indazol-4-yl]imidazolidin-2-one]: the IC50 worked out at 3520 nM.

Turning to `O=C(CN1CCN(c2cccc3c2cnn3-c2ccccc2F)C1=O)N1CCC2(C1)OCCO2` [Example 102, 1-[2-(1,4-dioxa-7-azaspiro[4.4]non-7-yl)-2-oxoethyl]-3-[1-(2-fluorophenyl)-1H-indazol-4-yl]imidazolidin-2-one], the IC50 was 3490 nM.

Consider `O=C1CN(C(=O)CN2CCN(c3cccc4c3cnn4-c3ccccc3F)C2=O)CC(=O)N1` [Example 103, 4-({3-[1-(2-fluorophenyl)-1H-indazol-4-yl]-2-oxoimidazolidin-1-yl}acetyl)piperazine-2,6-dione], for which the IC50 was 3620 nM.

On to `CN1CC2CN(C(=O)CN3CCN(c4cccc5c4cnn5-c4ccccc4F)C3=O)CC2C1` (stereo not drawn) [Example 104, 1-[1-(2-fluorophenyl)-1H-indazol-4-yl]-3-[2-(5-methylhexahydropyrrolo[3,4-c]pyrrol-2(1H)-yl)-2-oxoethyl]imidazolidin-2-one], for which the IC50 worked out at 6260 nM.

For `O=C1N(CC(=O)N2CCOC3CCCCC32)CCN1c1cccc2c1cnn2-c1ccccc1F` (stereo not drawn) [Example 105, 1-[1-(2-fluorophenyl)-1H-indazol-4-yl]-3-[2-(octahydro-4H-1,4-benzoxazin-4-yl)-2-oxoethyl]imidazolidin-2-one], the IC50 is 1330 nM.

For the compound `O=C(CN1CCN(c2cccc3c2cnn3-c2ccccc2F)C1=O)N1CC2CCCC2C1` (stereo not drawn) [Example 106, 1-[1-(2-fluorophenyl)-1H-indazol-4-yl]-3-[2-(hexahydrocyclopenta[c]pyrrol-2(1H)-yl)-2-oxoethyl]imidazolidin-2-one], the IC50 was determined as 635 nM.

`O=C1N(CC(=O)N2CC3C[C@@H]4CC2C[C@H](C3)C4)CCN1c1cccc2c1cnn2-c1ccccc1F` [Example 107, 1-{2-[(1R,3r,6s,8S)-4-azatricyclo[4.3.1.1^3,8]undec-4-yl]-2-oxoethyl}-3-[1-(2-fluorophenyl)-1H-indazol-4-yl]imidazolidin-2-one]: the IC50 was 1280 nM.

As to `CN1C(=O)[C@H]2CN(C(=O)CN3CCN(c4cccc5c4cnn5-c4ccccc4F)C3=O)C[C@H]2C1=O` [Example 108, (3aR,6aS)-5-({3-[1-(2-fluorophenyl)-1H-indazol-4-yl]-2-oxoimidazolidin-1-yl}acetyl)-2-methyltetrahydropyrrolo[3,4-c]pyrrole-1,3(2H,3aH)-dione], the IC50 came to 12300 nM.

As for `COC1C2CCC1CN(C(=O)CN1CCN(c3cccc4c3cnn4-c3ccccc3F)C1=O)C2` (stereo not drawn) [Example 109, 1-[1-(2-fluorophenyl)-1H-indazol-4-yl]-3-[2-(8-methoxy-3-azabicyclo[3.2.1]oct-3-yl)-2-oxoethyl]imidazolidin-2-one], the IC50 worked out at 1020 nM.

As to `O=C(CN1CCN(c2cccc3c2cnn3-c2ccccc2F)C1=O)N1CCCC2(CC1)OCCO2` [Example 110, 1-[2-(1,4-dioxa-8-azaspiro[4.6]undec-8-yl)-2-oxoethyl]-3-[1-(2-fluorophenyl)-1H-indazol-4-yl]imidazolidin-2-one], the IC50 came out at 2810 nM.

On to `O=C(CN1CCN(c2cccc3c2cnn3-c2ccccc2F)C1=O)N1C[C@@H]2[C@@H]3CC[C@@H](C3)[C@@H]2C1` [Example 111, 1-[1-(2-fluorophenyl)-1H-indazol-4-yl]-3-{2-[(3aR,4R,7S,7aS)-octahydro-2H-4,7-methanoisoindol-2-yl]-2-oxoethyl}imidazolidin-2-one], for which the IC50 was determined as 835 nM.

As for `CN1CCCC2CN(C(=O)CN3CCN(c4cccc5c4cnn5-c4ccccc4F)C3=O)CC21` (stereo not drawn) [Example 112, 1-[1-(2-fluorophenyl)-1H-indazol-4-yl]-3-[2-(1-methyloctahydro-6H-pyrrolo[3,4-b]pyridin-6-yl)-2-oxoethyl]imidazolidin-2-one], the IC50 came to 2690 nM.

Regarding `C[C@@H]1COCCN1C(=O)CN1CCN(c2cccc3c2cnn3-c2ccccc2F)C1=O` [Example 113, 1-[1-(2-fluorophenyl)-1H-indazol-4-yl]-3-{2-[(3R)-3-methylmorpholin-4-yl]-2-oxoethyl}imidazolidin-2-one], the IC50 was determined as 2270 nM.

Turning to `CN1[C@H]2CC[C@@H]1CN(C(=O)CN1CCN(c3cccc4c3cnn4-c3ccccc3F)C1=O)CC2` [Example 114, 1-[1-(2-fluorophenyl)-1H-indazol-4-yl]-3-{2-[(1R,6S)-9-methyl-3,9-diazabicyclo[4.2.1]non-3-yl]-2-oxoethyl}imidazolidin-2-one], the IC50 was 14300 nM.

Turning to `CC(C)C1CCCN1C(=O)CN1CCN(c2cccc3c2cnn3-c2ccccc2F)C1=O` (stereo not drawn) [Example 116, 1-[1-(2-fluorophenyl)-1H-indazol-4-yl]-3-[2-(2-isopropylpyrrolidin-1-yl)-2-oxoethyl]imidazolidin-2-one], the IC50 was 821 nM.

Regarding `CC(C)CC1CCCN1C(=O)CN1CCN(c2cccc3c2cnn3-c2ccccc2F)C1=O` (stereo not drawn) [Example 117, 1-[1-(2-fluorophenyl)-1H-indazol-4-yl]-3-[2-(2-isobutylpyrrolidin-1-yl)-2-oxoethyl]imidazolidin-2-one], the IC50 was 1790 nM.

Take `C[C@@H]1CCCN1C(=O)CN1CCN(c2cccc3c2cnn3-c2ccccc2F)C1=O` [Example 118, 1-[1-(2-fluorophenyl)-1H-indazol-4-yl]-3-{2-[(2R)-2-methylpyrrolidin-1-yl]-2-oxoethyl}imidazolidin-2-one]: the IC50 is 1100 nM.

As to `COC(=O)[C@H]1CCCN1C(=O)CN1CCN(c2cccc3c2cnn3-c2ccccc2F)C1=O` [Example 119, methyl 1-({3-[1-(2-fluorophenyl)-1H-indazol-4-yl]-2-oxoimidazolidin-1-yl}acetyl)-D-prolinate], the IC50 stood at 1760 nM.

For the compound `O=C(Nc1ccccc1)[C@H]1CCCN1C(=O)CN1CCN(c2cccc3c2cnn3-c2ccccc2F)C1=O` [Example 120, 1-({3-[1-(2-fluorophenyl)-1H-indazol-4-yl]-2-oxoimidazolidin-1-yl}acetyl)-N-phenyl-D-prolinamide], the IC50 is 4180 nM.

On to `O=C1N(CC(=O)N2C[C@H](O)C[C@@H]2c2cc(F)ccc2F)CCN1c1cccc2c1cnn2-c1ccccc1F` [Example 121, 1-{2-[(2R,4R)-2-(2,5-difluorophenyl)-4-hydroxypyrrolidin-1-yl]-2-oxoethyl}-3-[1-(2-fluorophenyl)-1H-indazol-4-yl]imidazolidin-2-one], for which the IC50 is 2410 nM.
